Reference: BindingDB's records for doi:10.1021/np049624z (Harvard Medical School, 2005)

Biological target: Forkhead box protein O1 (Homo sapiens, UniProt Q12778)
Test: Inhibition of FOXO1a nuclear export in PTEN-deficient cells

Sequence of Forkhead box protein O1 (Q12778 whole entry): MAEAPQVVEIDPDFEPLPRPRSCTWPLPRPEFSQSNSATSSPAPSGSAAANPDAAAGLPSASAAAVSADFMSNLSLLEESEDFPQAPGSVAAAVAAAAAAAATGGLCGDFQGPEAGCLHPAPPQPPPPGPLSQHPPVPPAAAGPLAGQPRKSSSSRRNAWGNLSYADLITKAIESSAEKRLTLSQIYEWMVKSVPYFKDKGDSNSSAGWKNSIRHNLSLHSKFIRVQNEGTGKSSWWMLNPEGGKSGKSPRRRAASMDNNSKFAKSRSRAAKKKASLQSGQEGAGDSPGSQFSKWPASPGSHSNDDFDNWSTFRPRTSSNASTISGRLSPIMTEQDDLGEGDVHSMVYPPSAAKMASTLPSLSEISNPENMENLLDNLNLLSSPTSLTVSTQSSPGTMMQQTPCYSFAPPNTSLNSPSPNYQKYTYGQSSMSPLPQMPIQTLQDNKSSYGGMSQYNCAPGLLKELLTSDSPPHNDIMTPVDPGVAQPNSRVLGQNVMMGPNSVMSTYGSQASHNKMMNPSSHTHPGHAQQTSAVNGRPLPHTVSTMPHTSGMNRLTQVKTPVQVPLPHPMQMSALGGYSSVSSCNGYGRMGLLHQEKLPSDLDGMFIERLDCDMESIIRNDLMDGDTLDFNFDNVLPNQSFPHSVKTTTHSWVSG

Row | Compound | IC50
1 | CN(C)CCCOc1c(Br)cc(/C=C/C(=O)NCCCOc2c(Br)cc(CCN(C)C)cc2Br)cc1Br [psammaplysene A] | 5 µM
2 | CNCCCOc1c(Br)cc(/C=C/C(=O)NCCCOc2c(Br)cc(CCN(C)C)cc2Br)cc1Br [psammaplysene B] | 20 µM
